Source: the METLIN SMRT retention time set (Domingo-Almenara et al. 2019)

Assay: gradient 5% acetonitrile 3 min, to 50% in 2 min, to 85% in 15 min, held 3 min, 100 µL/min
Conditions: column: Zorbax Extend-C18 2.1 x 50 mm; eluents: water / acetonitrile, 0.1% formic acid
In short: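 Values are retention times taken from adduct peaks that software picked and an analyst inspected. The pure standards were run as mixtures of ~100 molecules on HPLC linked to a quadrupole time-of-flight mass spectrometer, in positive and negative ionization mode. A Zorbax Extend-C18 column (2.1 × 50 mm, 1.8 μm) was used at 100 μL/min with water and acetonitrile, each including 0.1% formic acid.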

RP-LC retention time [s] | Structure (SMILES)
1140 | CCOc1ccc(-n2c(=O)c3sccc3n(Cc3nc(-c4ccc(F)c(Cl)c4)no3)c2=O)cc1
938 | Cc1ccc(NC(=O)N2CCC(N3CCN(Cc4ccccc4)C3=O)CC2)cc1Cl
740 | O=C(CC1CCCN(c2cnn(CC3CC3)c(=O)c2)C1)N1CCSCC1 (stereo not given)
697 | O=C(NCc1cccc(Cl)c1)C1CCN(c2cnc3nccnc3c2)CC1
805 | Cc1ccsc1C(=O)Nc1cccn2c(C3CCC3)nnc12
975 | O=C(Cc1c(Sc2cccc(F)c2)[nH]c2ccccc12)N1CCN(c2ncccn2)CC1
888 | CCc1noc(NC(C)=O)c1-c1ccc(C)c(S(=O)(=O)Nc2ccc(Cl)cc2C)c1
578 | O=S(=O)(C1CC1)N1CCCCC1c1nncn1CC1CC1 (stereo not given)
893 | CCc1cccc(NC(=O)C2CCCN(S(=O)(=O)c3cn(C(C)C)cn3)C2)c1 (stereo not given)
729 | O=C(NCC1CCCO1)c1nnc(-c2ccc(S(=O)(=O)N3CCCC3)cc2)o1 (stereo not given)
584 | NC(=O)C1CCN(c2ncnc3c2oc2ccccc23)CC1
1130 | O=C(NCc1cccc(Br)c1)C1CCCN(c2nccnc2Sc2ccccc2)C1 (stereo not given)
813 | Cc1cccc(NC(=O)N2c3ccccc3NC3=C(C(=O)CCC3)C2c2ccco2)c1C (stereo not given)
727 | Cc1cc2c(=O)n(CC(=O)NCc3cccc(Cl)c3)c3cccnc3n2n1
877 | Cc1ccccc1CNC(=O)C1CCCN(S(=O)(=O)c2c[nH]c(C(=O)N3CCCC3)c2)C1 (stereo not given)
689 | O=C(CC1COc2ccccc2NC1=O)NCCc1cccs1 (stereo not given)
841 | CC1(C(=O)N2CCCc3ccccc32)Cc2ccccc2C(=O)O1 (stereo not given)
995 | Cc1ccc(NC(=O)Nc2ccc3c(c2)CCN3S(=O)(=O)c2ccccc2)cc1
1100 | CCc1ccc(N2CC(c3noc(-c4ccccc4F)n3)CC2=O)cc1 (stereo not given)
614 | Cc1cc(N2CCN(c3ccccn3)CC2)n2nc(-c3ccccc3)c(C)c2n1
574 | Cc1cccc(Nc2ccc(N3CCN(C(=O)Cc4c[nH]c5ccccc45)CC3)nn2)n1
724 | O=C(Cn1ccc2sccc2c1=O)N1CCN(c2ccccc2)CC1
731 | CCOC(=O)N1CCN(C(=O)Cn2ccc3ccccc32)CC1

RP-LC retention time [s] | Structure (SMILES)
620 | CCCNC(=O)CN1CCN(C(=O)c2sc3ncccc3c2-n2cccc2)CC1
848 | O=C(NC1CCCCCC1)C1CCN(Cc2cc3ccccc3n2Cc2cccc(F)c2)CC1
703 | CC(=O)Nc1cccc(N2CC(C(=O)Nc3ccc(Br)c(C)c3)CC2=O)c1 (stereo not given)
840 | COC(=O)c1ccccc1NC(=O)c1cc(N2C(=O)CCS2(=O)=O)ccc1Cl
907 | Cc1nc(C(C)C)ncc1C(=O)Nc1ccc(Br)cc1F
794 | Cc1ccnc(NC(=O)C2CCN(S(=O)(=O)c3ccc(-c4noc(C5CC5)n4)cc3)CC2)c1
654 | O=C(Nc1ccc(S(=O)(=O)N2CCCCC2c2cccnc2)cc1)C1CCCCC1 (stereo not given)
997 | CNC(=O)c1cnc(-c2ccc(Cl)cc2)n(CC(=O)N2CCc3ccccc32)c1=O
664 | Cn1nc(C(=O)N2CCCC2)c2c1CCN(C(=O)CCC(=O)NC1CCCCC1)C2
994 | O=C(N1CCC(c2nc(-c3ccccc3)no2)C1)C1(c2ccccc2)CC1 (stereo not given)
906 | COc1ccc(-c2cc3c(=O)n(Cc4ccccc4)ccn3n2)cc1OC
802 | CC1=C(c2cccc(Cl)c2)S(=O)(=O)N=C1N1CCCN(C(=O)NC(C)C)CC1
881 | Cn1c(C(=O)c2ccncc2)cc2ccccc21
1300 | CCOc1cc(-c2nc(C3CC(=O)N(c4ccc(CC)cc4)C3)no2)cc(OCC)c1OCC (stereo not given)
656 | COc1ccc(CCC(=O)NC(C)C(=O)Nc2nc3ccccc3[nH]2)cc1 (stereo not given)
790 | CCN1C(=O)CCc2cc(NS(=O)(=O)c3ccccc3C(=O)OC)ccc21
819 | COc1ccc(C(C)NC(=O)CCc2ccc3c(ccn3C)c2)cc1OC (stereo not given)
1140 | COc1cccc(NS(=O)(=O)c2cccc(-c3nc(-c4ccccc4)no3)c2)c1
568 | O=C(NCCCN1CCOCC1)C1CCN(c2nc3cccnc3s2)CC1
1190 | Cc1nn(-c2ccc(F)cc2)c2nc(N3CCCC(C(=O)NCc4ccc(Cl)cc4)C3)sc12 (stereo not given)
883 | CC(C)NC(=O)c1cc2c(n(-c3ccc(C(F)(F)F)cc3)c1=O)CCCC2=O
898 | CCN1C(=O)c2cccnc2Sc2cc(NC(=O)Cc3ccccc3C)ccc21
1170 | CCCN1C(=O)c2cc(S(=O)(=O)N3CCCCC3C)ccc2Oc2cccnc21 (stereo not given)

RP-LC retention time [s] | Structure (SMILES)
702 | CC(C)n1cc(C2=CCN(S(=O)(=O)c3ccccc3)CC2)c2cccnc21
581 | Cc1nc(-c2cccc(NC(=O)c3ccc(-n4ccnc4C)nn3)c2)cs1
734 | O=C1C(Nc2ccccc2)=CC(=O)c2ncccc21
652 | O=S(=O)(c1cccs1)N1CCN(c2cnn3cnnc3c2)CC1
840 | O=C(C1CN(S(=O)(=O)c2ccccc2)CC12CCCCC2)N1CCOCC1 (stereo not given)
736 | Cc1ccc(C)c(NC(=O)Cc2nnc(-c3cnccn3)o2)c1
752 | CC(C)c1noc(C2CCCN(C(=O)NC3CCCCC3)CCC(=O)NCC2)n1 (stereo not given)
767 | Cc1nc(-c2ccc(F)cc2)sc1C(=O)N(C)C
816 | CCc1cccc(C)c1Nc1c(-c2ccccc2)nc2nc(C)cc(C)n12
742 | O=C(Nc1ccc(F)c(F)c1)C1CCc2nc(N3CCOCC3)ncc2C1 (stereo not given)
636 | Cc1nnc(C2CC3(CCN(Cc4ccccc4)CC3)CN2Cc2ccccc2)o1 (stereo not given)
645 | C#CCSc1nc(=O)n2ccc(C)cc2n1
754 | COc1ccccc1NC(=O)N1CCC2(CC1)NC(=O)c1cccc(Cl)c1N2
976 | COc1cc(-c2noc(-c3ncn4c3COC(c3ccc(F)cc3)C4)n2)cc(OC)c1OC (stereo not given)
627 | Cc1ncc2c(n1)CCN(C(=O)c1ccc(Cl)cc1)C2
680 | Cc1ccc(CNC(=O)Nc2ccc3nncn3c2)cc1
785 | Cc1ccc2c(c1)C(O)(CC(=O)c1cccc(Cl)c1)C(=O)N2 (stereo not given)
648 | CN(C)CCNc1ncnc2c1cnn2-c1cccc(Cl)c1
763 | O=S(=O)(CCCOc1ccc(F)cc1)NCC1CCCO1 (stereo not given)
745 | O=C(Nc1cccc2cccnc12)C1CCN(c2ccc(-n3cccn3)nn2)CC1
618 | COCCCNC(=O)Cc1c(C)n(C)c2nc(-c3ccccc3)nn2c1=O
992 | Cc1ccc(S(=O)(=O)N2C[C@@H]3C[C@H](NC(=O)c4cccs4)[C@H]2C3)cc1Cl
765 | Cc1nc2cccnc2n1CC1CCCN(S(=O)(=O)c2ccc3c(c2)CCC3)C1 (stereo not given)

RP-LC retention time [s] | Structure (SMILES)
920 | COC(=O)c1ccc2c(=O)n(-c3cc(OC)cc(OC)c3)c(N3CCCC3)nc2c1
864 | CN(C)c1nc2ncn3c(=O)n(CC(=O)NC4CCc5ccccc54)nc3c2s1 (stereo not given)
718 | CC(C(=O)N1CCCN(c2nc3cccnc3o2)CC1)c1ccccc1 (stereo not given)
770 | O=C1CCCN1Cc1noc(-c2ccccc2Cl)n1
1030 | CC1CCN(S(=O)(=O)c2ccc(-c3nnc(C(=O)NCCCOC(C)C)o3)cc2)CC1
1030 | CCSc1nnc(-c2nn(C)c3c2CN(S(=O)(=O)c2ccc(CC)cc2)CC3)n1CC
614 | CCCN(CCC)Cc1ccc(CNC(=O)C2CCCN(c3nnc(N4CCCC4=O)s3)C2)o1 (stereo not given)
1210 | CC(C)Cc1nc(C2CN(C(=O)CC3CCCC3)CC23CCCC3)no1 (stereo not given)
610 | Cc1cccc(NC(=O)N2CCC(N3CCN(Cc4ccccn4)C(=O)C3=O)CC2)c1
691 | CCC(C(=O)NC(C)C(=O)Nc1nc2ccccc2[nH]1)c1ccccc1 (stereo not given)
856 | CCNC(=O)N(CC(=O)N1CCc2sccc2C1COc1ccc(F)cc1)CC1CCCO1 (stereo not given)
1090 | CCN1C(=O)C2(CCN(S(=O)(=O)c3ccc(F)c(C)c3)CC2)c2ccccc21
620 | O=C(Nc1cccc2ccc(-n3ccnc3)nc12)c1ccc2c(c1)OCO2
784 | Cc1cccc(N(C)C(=O)CN2C(=O)NC3(CCCCC3)C2=O)c1
619 | Nc1ccc(-c2ccc3ccccc3n2)cc1
715 | Cc1cccc(-c2nc3ccccn3c2NC(=O)Nc2cc(F)ccc2F)c1
848 | CC(C)NC(=O)Cn1c2ccccc2c2ncn(Cc3nc(-c4ccccc4)no3)c(=O)c21
700 | Cc1csc(NC(=O)c2cc(Sc3nncn3C)ccc2N)n1
691 | CN1CCn2cc(S(=O)(=O)NCc3cc(F)cc(F)c3)cc2C1=O
698 | Cn1nc(N2CCCC(NS(=O)(=O)c3cccc4cccnc34)C2)ccc1=O (stereo not given)
1100 | CN(C)c1cccc(-c2nc(-c3cn(-c4ccc(F)cc4)nn3)no2)c1
